Laboratory results as given in patent US6599933B2, “Tocotrienol derivative, process for producing the same and γ-CEHC delivering agent” (Kenko Corporation, priority 2000, dated 2003).

Experiments:
[1] = racemic γ-CEHC administered to SD rat intravenously; cited from earlier work
[2] = Hydrolyzability test in rat liver microsome solution; assay type: in vitro ADME
Protocol: (§1) d-α-tocotrienol N,N-dimethylaminoacetate hydrochloride (Example 5:hereinafter, d-α-T3DMA), d-α-tocotrienol N-methylaminoacetate hydrochloride (Example 2:hereinafter, d-α-T3MA), d-γ-tocotrienol N,N-dimethylaminoacetate hydrochloride (Example 6:hereinafter, d-γ-T3DMA), d-γ-tocotrienol N-methylaminoacetate hydrochloride (Example 4:hereinafter, d-γ-T3MA), or d-γ-tocotrienolaminoacetate hydrochloride (Example 3:hereinafter, d-γ-T3AA) were added to a solution of SD rat liver microsome and rat plasma in an isotonic phosphate buffer, and d-α-tocotrienol and d-γ-tocotrienol produced in the reaction solution at 37° C. with time were measured by high performance liquid chromatography (HPLC).
(§2) As Comparative Example, a hydrolysis test was performed on d-α-tocotrienolsuccinic acid ester (hereinafter, d-α-T3S) and d-γ-tocotrienolsuccinic acid ester (hereinafter, d-γ-T3S) similarly.
(§3) HPLC conditions: Column was CAPCELL PAK UG120, a mobile phase was methanol-acetonitrile (5:5 v/v), a rate was 0.7 ml/min, and detection was carried out by absorbance of 283 nm and fluorescent intensity (excitation 298 nm, fluorescent 325 nm).
(§4) Dynamic parameters of production of d-α-tocotrienol and d-γ-tocotrienol in a solution of rat liver microsome and rat plasma according to Micaelis-Menten model are shown in Tables 4 and 5.

[3] = Hydrolyzability test in rat plasma solution; assay type: in vitro ADME; details: 37° C., production of tocotrienol, Michaelis-Menten model
Protocol: as §1, §2, §3, §4

[4] = Animal Test Example 1: kinetics in rat after intravenous administration (plasma, liver, heart, kidney); parameters: species or system SD rat; details: in vivo, 25 mg/kg
Protocol: 1) SD male rats (weighing 260-285 g) were used while a diet was changed to crystal sugar from 16 hours before drug administration. d-α-T3DMA (Example 5), d-γ-T3DMA (Example 6), d-α-tocotrienol (hereinafter, d-α-T3), or d-γ-tocotrienol (hereinafter, d-γ-T3) was administered into left femoral vein under slight anesthesia. A solution of d-α-T3DMA or d-γ-T3DMA to be administered was used by dissolving it in distilled water containing 10% propylene glycol, and filtering with membrane filter (0.22 μm). A solution of d-α-T3 and d-γ-T3 to be administered was used by dissolving it using a nonionic surfactant HCO-60. Administration amounts were set to be tocotrienol equivalent 25 mg/kg, respectively. 0.25, 0.5, 1, 2, 4, 8 and 24 hours after administration, blood was taken under ether anesthesia, and liver, heart and kidney were taken. Plasma was rapidly separated and taken. A 1.15% potassium chloride solution was added at a 3-fold amount of each organ weight was added thereto, which was homogenated. 0.7 ml of ethanol was added to 0.2 ml of each sample, the mixture was stirred for 2 minutes, centrifuged, and the supernatant was analyzed by the aforementioned HPLC.

[5] = Test Examples 2 and 3: S-γ-CEHC kinetics in plasma after intravenous administration to rat; assay type: in vivo, SD rat
Protocol: A SD male rat, 7 weeks old, was used. A solution of γ-T3DMA to be administered was prepared into a d-γ-tocotrienol equivalent 25 mg/ml aqueous solution. The solution was administered intravenously into left femoram vein under slight ether anesthesia, blood was taken from external jugular vein with an injector for tuberculin treated with heparin with time, and plasma was taken after centrifugation. Plasma was stored at −80° C. till HPLC measurement. A γ-CEHC level in plasma was measured by the HPLC method which can fractionally quantitate optical isomers S-γ-CEHC and R-γ-CEHC (Hattori A., Fukushima T., Imai K., Anal. Biochem., 281, 209-215 (2000)). […] R-γ-CEHC was not detected in plasma after administration and only S-γ-CEHC was detected therein. […] Here, a S-γ-CEHC level after administration of racemic γ-CEHC is a value at racemic γ-CEHC 1 mg/kg. […] S-γ-CEHC in plasma was rapidly elevated after administration of γ-T3DMA and reached Cmax 1 hour after administration. […] Mean Retention Time (MRT) of a γ-T3DMA administered group is 6.64 hr and is an about 7-fold value as compared with MRT 1.00 hr of a racemic γ-CEHC administered group. From the foregoing, it can be understood that γ-T3DMA can enhance the S-γ-CEHC level in the living body and, further, can maintain the S-γ-CEHC level continuously for longer period of time.
The pharmacokinetics parameter represents an average of four animals and standard deviation. A dose is γ-T3 equivalent 25 mg/kg. F(%) was obtained by the following equation: […]
a Obtained by the Following Equation [formula]
wherein AUCS-γ-CEHC,γ-T3DM^Plasma and AUCS-γ-CEHC,racemicγ-CEHC^Plasma means AUC of S-γ-CEHC after administration of γ-T3DMA and racemic γ-CEHC, respectively, and Dγ-T3DMA and Dracemic γ-CEHC means a dose of γ-T3DMA and racemic γ-CEHC, respectively.
b Obtained by the Following Equation [formula]
wherein AUCS-γ-CEHC,γ-TDMA^Plasma means AUC of S-γ-CEHC after administration of γ-TDMA, and Dγ-TDMA means a dose of γ-TDMA.
γ-CEHC kinetics in plasma was studied by administering an aqueous γ-TDMA solution into rat's vein according to the same test procedure as those of Test Example 2. The γ-CEHC in plasma was all S-γ-CEHC and R-γ-CEHC was not detected. […] A level in plasma was rapidly elevated after administration, reached Cmax after 1 hr, and a S-γ-CEHC level was elevated clearly. […] Thus, it was shown that a level of S-γ-CEHC in the living body is efficiently elevated. Mean Retention Time (MRT) of a γ-TDMA administered group was 8.19 hr and was about 8-fold value as compared to MRT 1.00 hr of a racemic γ-CEHC administered group.

Water-solubility test = details: 0.250 mmol in 5 ml distilled water, stirred at 20° C. for 24 hours, HPLC
[6] = liver microsome, 37° C., production of tocotrienol, Michaelis-Menten model
[7] = liver microsome, 37° C., production of tocotrienol, Michaelis-Menten model, read-out: Km

SMILES	Km [2] [µM]	Vmax/Km [2] [min⁻¹]	Vmax [2, 6] [M/min]	Km [3] [µM]	Vmax [3] [M/min]	also measured
Cc1c(O)cc2c(c1C)O[C@@](C)(CCC(=O)O)CC2 [R-γ-CEHC]	–	–	–	–	–	biological half-life in plasma [1]: about 1 hour
Cc1c(O)cc2c(c1C)OC(C)(CCC(=O)O)CC2 (stereo not shown) [S-γ-CEHC]	–	–	–	–	–	biological half-life in plasma [1]: ≤ 2 minutes
CC(C)=CCC/C(C)=C/CC/C(C)=C/CC[C@]1(C)CCc2c(C)c(OC(=O)CN(C)C)c(C)c(C)c2O1.Cl [d-α-T3DMA, d-α-tocotrienol N,N-dimethylaminoacetate hydrochloride]	5970	0.02455	0.0001465	793	9.187e-08	bioavailability of d-α-T3 in liver [4]: 130%
CNCC(=O)Oc1c(C)c(C)c2c(c1C)CC[C@@](C)(CC/C=C(\C)CC/C=C(\C)CCC=C(C)C)O2.Cl [d-α-T3MA, d-α-tocotrienol N-methylaminoacetate hydrochloride]	109	0.01111	1.878e-06	1550	5.808e-07	–
CC(C)=CCC/C(C)=C/CC/C(C)=C/CC[C@]1(C)CCc2c(C)c(OC(=O)CCC(=O)O)c(C)c(C)c2O1 [d-α-T3S, d-α-tocotrienolsuccinic acid ester, reference compound]	30.3	0.001846	5.588e-08	506	4.946e-08	–
CC(C)=CCC/C(C)=C/CC/C(C)=C/CC[C@]1(C)CCc2cc(OC(=O)CN)c(C)c(C)c2O1.Cl [d-γ-T3AA, d-γ-tocotrienol aminoacetate hydrochloride]	–	–	7.716e-05	5510	3.594e-05	Km [2, 7]: 1560 µM
CC(C)=CCC/C(C)=C/CC/C(C)=C/CC[C@]1(C)CCc2cc(OC(=O)CN(C)C)c(C)c(C)c2O1.Cl [d-γ-T3DMA, d-γ-tocotrienol N,N-dimethylaminoacetate hydrochloride]	–	–	0.000323	786	7.592e-06	Km [2, 7]: 5580 µM; R-γ-CEHC in plasma after administration ([5]; intravenous, HPLC separating optical isomers): not detected; MRT as fold of MRT of racemic γ-CEHC administered group ([5]; intravenous, S-γ-CEHC in plasma): about 7 fold
CNCC(=O)Oc1cc2c(c(C)c1C)O[C@](C)(CC/C=C(\C)CC/C=C(\C)CCC=C(C)C)CC2.Cl [d-γ-T3MA, d-γ-tocotrienol N-methylaminoacetate hydrochloride]	–	–	0.0001204	12700	5.178e-05	Km [2, 7]: 2100 µM
CC(C)=CCC/C(C)=C/CC/C(C)=C/CC[C@]1(C)CCc2cc(OC(=O)CCC(=O)O)c(C)c(C)c2O1 [d-γ-T3S, d-γ-tocotrienolsuccinic acid ester, reference compound]	22.1	0.03244	7.161e-07	1050	1.945e-06	–
CC(C)=CCC/C(C)=C/CC/C(C)=C/CC[C@]1(C)CCc2cc(O)c(C)c(C)c2O1 [d-γ-tocotrienol]	–	–	–	–	–	solubility in distilled water (Water-solubility test): below detection limit of HPLC
Cc1c(OC(=O)CN(C)C)cc2c(c1C)O[C@](C)(CCC[C@H](C)CCC[C@H](C)CCCC(C)C)CC2.Cl [γ-TDMA, d-γ-tocopheryl N,N-dimethylaminoacetate hydrochloride]	–	–	–	–	–	MRT as fold of MRT of racemic γ-CEHC administered group ([5]; in vivo, iv): about 8 fold; R-γ-CEHC in plasma after administration ([5]; in vivo, iv): not detected
